These results are taken from the Deep4Chem optical property database.

Molecules are shown by their SMILES.

This data set can be described thus: solvent given as SMILES.

On to `CCCCCCCCCCCCCCCCN(CCCCCCCCCCCCCCCC)c1ccc(/C=C/c2cc[n+](Cc3cc(C[n+]4ccc(/C=C/c5ccc(N(CCCCCCCCCCCCCCCC)CCCCCCCCCCCCCCCC)cc5)cc4)cc(C[n+]4ccc(/C=C/c5ccc(N(CCCCCCCCCCCCCCCC)CCCCCCCCCCCCCCCC)cc5)cc4)c3)cc2)cc1`, for which the emission maximum runs as follows: (in C1COCCO1) 578 nm; (in CC(C)O) 613 nm; (in CCCCCC) 630 nm; (in CCCCCCCCO) 589 nm; (in CCCCO) 612 nm; (in CCCO) 617 nm. The emission maximum is, setting by setting: (in CCO) 621 nm; (in CO) 624 nm; (in CS(C)=O) 615 nm; (in Cc1ccc(C)cc1) 556 nm; (in Cc1ccccc1) 559 nm; (in ClC(Cl)Cl) 587 nm. In addition, the emission maximum was 606 nm (in ClCCl) and 562 nm (in c1ccccc1).
`CC(C)(C)[Si](C)(C)c1ccc([Si](C)(C)C(C)(C)C)c2ccccc12` displayed an emission maximum (in C1CCCCC1) of 335 nm.
`CCOC(=O)/C=C/C1=[N+]2C(=C(c3c(C)cc(C)cc3C)c3ccc(/C=C/C(=O)OCC)n3[B-]2(F)F)C=C1` came in with an emission maximum (in ClCCl) of 602 nm.
As to `CCOC(=O)c1ccccc1-c1c2ccc(=O)cc-2oc2cc(OC(=O)[C@H](CO[Si](C)(C)C(C)(C)C)NC(=O)OC(C)(C)C)ccc12`, the emission maximum by setting is: (in C1CCOC1) 512 nm; (in CC#N) 542 nm; (in CCO) 525 nm; (in CS(C)=O) 547 nm.
`N#CSC1=CC2=C(c3c(Cl)cccc3Cl)c3cc(SC#N)c(NCc4ccccc4)n3[B-](F)(F)[N+]2=C1NCc1ccccc1`: the emission maximum was determined as 648 nm (in CC#N); 655 nm (in CCCCCC); 654 nm (in CCOC(C)=O); 646 nm (in CO); 656 nm (in ClCCl).
For `C(S/C=C/c1ccc(-c2ccc(/C=C/SC=C3CCCCCCC3)cc2)cc1)=C1CCCCCCC1`, the emission maximum (in ClCCl) was found to be 437 nm.
With `Cc1cc(N(C)C)cc(C)c1/C=C/C=C/c1ccc(C#N)cc1`, the emission maximum by setting is: (in CC#N) 599 nm; (in CCCCCC) 442 nm; (in CCOCC) 527 nm.
Regarding `CCCCCCCCCCCCOc1cc2c3c(ccc4c5c(SCCCCCCCCCCCC)cc6c7c(ccc(c1c34)c75)C(=O)N(C1CCCCC1)C6=O)C(=O)N(C1CCCCC1)C2=O`, the emission maximum (in ClC(Cl)Cl) was determined as 640 nm.
`CCOc1ccc(/C=C/c2nc(N3CCOCC3)c3c([n+]2[O-])CCCC3)cc1` gave an emission maximum (in ClCCl) of 515 nm.
Under “in O”, `O=C(O)CCCCCn1c2ccccc2c(=O)c2cc(Br)ccc21` came in with an emission maximum of 432 nm.
On to `C[N+]1=C(/C=C/C=C2/N(CCC[N+](C)(C)C)c3ccccc3C2(C)C)C(C)(C)c2ccccc21`, for which the emission maximum (in CS(C)=O) turned out to be 565 nm.
For `CCCCC1(c2ccccc2)Nc2c(-c3ccc(N(c4ccccc4)c4ccccc4)cc3)ccc(-c3ccc(N(c4ccccc4)c4ccccc4)cc3)c2N=C1c1ccccc1` (stereo not given), the emission maximum is listed as 554 nm (in C1CCOC1); 567 nm (in CC#N); 521 nm (in CCCCCC); 578 nm (in CN(C)C=O); 533 nm (in Cc1ccccc1); 547 nm (in ClC(Cl)Cl).
On to `N#Cc1nc2c3ccc(N(c4ccccc4)c4ccccc4)cc3c3cc(N(c4ccccc4)c4ccccc4)ccc3c2nc1C#N`, for which the emission maximum (in C1COCCO1) is reported as 586.91 nm; the emission maximum (in CCCCCC) came out at 515.27 nm; the emission maximum (in Cc1ccccc1) worked out at 566 nm; the emission maximum (in ClC(Cl)Cl) is on record as 639.45 nm; the emission maximum (in O=P(c1ccccc1)(c1ccccc1)c1cccc(-c2cc(-n3c4ccccc4c4ccccc43)cc(-n3c4ccccc4c4ccccc43)c2)n1) came to 606 nm.
On to `F[Si-](F)(c1c2ccccc2cc2ccccc12)(c1c2ccccc2cc2ccccc12)c1c2ccccc2cc2ccccc12`, for which, under “in C1CCOC1”, the emission maximum was determined as 396 nm.
Compound `O=P(c1ccccc1)(c1ccccc1)c1cccc(-c2nc3ccccc3n2-c2cccc(P(=O)(c3ccccc3)c3ccccc3)c2)c1` showed an emission maximum (in ClCCl) of 376 nm.
For the compound `O=C1CC(c2cccc([N+](=O)[O-])c2)c2c(c3ccccc3c3nc4ccccc4nc23)O1` (stereo not given), the emission maximum reads like this: (in CCCCCC) 417 nm; (in CCOC(C)=O) 429 nm; (in CN(C)C=O) 443 nm; (in CO) 452 nm; (in CS(C)=O) 452 nm; (in ClC(Cl)Cl) 428 nm.
Consider `CC(=O)Nc1cc2ccc3cccc4ccc(c1)c2c34`, for which the emission maximum (in CC#N) was determined as 388 nm, the emission maximum (in CCCCOCCCC) is reported as 389 nm and the emission maximum (in CO) is 387 nm.
Where the note is “in C1CCOC1”, `N#Cc1c(N2CCCC2)cc(-c2ccccc2)c2c1-c1ccccc1C2=O` showed an emission maximum of 527 nm.
Regarding `CCC(C)[Si](C#Cc1c2nc3c4ccccc4c(=O)c4ccccc4c3nc2c(C#C[Si](C(C)CC)(C(C)CC)C(C)CC)c2nc3c4ccccc4c(=O)c4ccccc4c3nc12)(C(C)CC)C(C)CC` (stereo not given), the emission maximum (in ClCCl) came out at 571 nm.
For the compound `Nc1cccc2c1C(=O)c1ccccc1-2`, the emission maximum is, setting by setting: (in C1CCCCC1) 471 nm; (in CC#N) 501 nm; (in CCO) 521 nm; (in c1ccccc1) 482 nm.
`CN(C)c1ccc(/C=C/c2nc3cc(Br)ccc3nc2-c2ccccc2)cc1`: the emission maximum (in C1COCCO1) is on record as 555 nm, the emission maximum (in CC#N) was 643 nm and the emission maximum (in ClCCl) is 601 nm.
Consider `COc1ccc2cc(-c3ccccc3CC#N)c(=O)oc2c1`, for which the emission maximum (in ClC(Cl)Cl) is 409 nm.
As to `O=Cc1c(O)c(-c2nc3ccccc3s2)cc2ccccc12`, the emission maximum is, setting by setting: (in C1CCOC1) 497 nm; (in CC#N) 505 nm; (in CC(C)=O) 507 nm; (in CCO) 503 nm; (in CCOC(C)=O) 501 nm; (in CN(C)C=O) 538 nm. Besides, the emission maximum reads like this: (in CO) 525 nm; (in Cc1ccccc1) 509 nm; (in ClC(Cl)Cl) 505 nm; (in ClCCl) 505 nm.
Under “in O”, `O=C(O)CCCCCn1c2ccc(Br)cc2c(=O)c2cc(S(=O)(=O)O)ccc21` showed an emission maximum of 435 nm.
Consider `CCN(CC)c1ccc(/C=C/c2ccc(-c3ccc(/C=C/c4ccc(N(CC)CC)cc4)s3)s2)cc1`, for which the emission maximum is, setting by setting: (in C1CCOC1) 544 nm; (in CC#N) 577 nm; (in CC(C)=O) 570 nm; (in CN(C)C=O) 586 nm; (in Cc1ccccc1) 530 nm.
As for `CN(C)c1cccc(/C=C/c2ncc(-c3ccc(OCc4ccccc4)c(OCc4ccccc4)c3)o2)c1`, for the setting “in ClCCl”, the emission maximum is 490 nm.
Compound `N#Cc1c(-n2c3ccc(-c4ccccc4)cc3c3cc(-c4ccccc4)ccc32)c(-n2c3ccc(-c4ccccc4)cc3c3cc(-c4ccccc4)ccc32)c(C#N)c(-n2c3ccc(-c4ccccc4)cc3c3cc(-c4ccccc4)ccc32)c1-n1c2ccc(-c3ccccc3)cc2c2cc(-c3ccccc3)ccc21` yielded an emission maximum (in Cc1ccccc1) of 577 nm.
In the case of `c1ccc(-n2c3ccccc3c3cc(C4(c5ccc6c(c5)c5ccccc5n6-c5ccccc5)c5cc(-c6ccc7ccc8cccc9ccc6c7c89)ccc5-c5ccc(-c6ccc7ccc8cccc9ccc6c7c89)cc54)ccc32)cc1`, where the note is “in ClCCl”, the emission maximum is on record as 423 nm.
`COc1ccc(-c2nc(/C(C#N)=C/c3ccc(Cl)cc3)sc2-c2ccc(OC)cc2)cc1`: for the setting “in CC#N”, the emission maximum is recorded as 553 nm.
Where the note is “in C1CCOC1”, `CCCCCCc1ccsc1-c1cc2c3cc(-c4sccc4CCCCCC)c4nc(C(F)(F)C(F)(F)C(F)(F)F)nc5c(-c6sccc6CCCCCC)cc(c6cc(-c7sccc7CCCCCC)c7nc(C(F)(F)C(F)(F)C(F)(F)F)nc1c7c26)c3c45` registered an emission maximum of 627 nm.
Take `CN(C)CCCN1c2ccccc2Sc2ccc(Cl)cc21`: the emission maximum runs as follows: (in CC#N) 451 nm; (in CO) 449 nm; (in O) 453 nm.
With `N#Cc1ccc2nc3[nH]c(=O)[nH]c(=O)c3nc2c1`, the emission maximum (in ClCCCl) is given as 420 nm.
`O=c1cc(C(F)(F)F)c2cc3c4c(c2o1)CCCN4CCC3`: the emission maximum runs as follows: (in C1CCCCC1) 455 nm; (in CC#N) 521 nm; (in CCO) 531 nm; (in CCOC(C)=O) 501 nm; (in OCC(O)CO) 546 nm.
Take `CC1(C)c2ccccc2N(c2ccc(C(=O)c3cc(C(=O)c4ccc(N5c6ccccc6C(C)(C)c6ccccc65)cc4)cc(C(=O)c4ccc(N5c6ccccc6C(C)(C)c6ccccc65)cc4)c3)cc2)c2ccccc21`: the emission maximum turned out to be 530 nm (in Cc1ccccc1) and 521 nm (in c1ccc2c(c1)c1ccccc1n2-c1ccc(-c2ccc(-n3c4ccccc4c4ccccc43)cc2)cc1).
For the setting “in C1CCOC1”, `O=S1(=O)C(c2cccs2)=C(c2cccs2)c2ccccc21` registered an emission maximum of 432 nm.
In turn, `CCCCCCCCCCCCCCCCn1c(-c2cc(-c3nc4ccc(C)cc4n3CCCCCCCCCCCCCCCC)cc(-c3nc4ccc(C)cc4n3CCCCCCCCCCCCCCCC)c2)nc2ccc(C)cc21` came in with an emission maximum (in C1CCOC1) of 366.9 nm.
For the compound `CC[n+]1nc2cc3c4c(c2c2cc(F)ccc21)CCCN4CCC3`, the emission maximum (in O) came out at 564 nm.
Regarding `CC(C)(C)c1ccc2c(c1)c1cc(C(C)(C)C)ccc1n2-c1cc(-n2c3ccc(C(C)(C)C)cc3c3cc(C(C)(C)C)ccc32)c(-n2c3ccc(C(C)(C)C)cc3c3cc(C(C)(C)C)ccc32)c(C#N)c1-n1c2ccc(C(C)(C)C)cc2c2cc(C(C)(C)C)ccc21`, the emission maximum runs as follows: (in CCCCCC) 449.25 nm; (in CCO) 484.15 nm; (in Cc1ccccc1) 456 nm; (in ClCCl) 472.48 nm.
Under “in ClC(Cl)Cl”, `CCCCCCCCCCOc1cc(OCCCCCCCCCC)cc(C2=C3C(/C=C/c4ccc(OC)cc4)=CC(/C=C/c4ccc(OC)cc4)=[N+]3[B-](F)(F)n3c(/C=C/c4ccc(OC)cc4)cc(C=Cc4ccc(OC)cc4)c32)c1` had an emission maximum of 710 nm.
